Results: patent US7449553B2, “Antibody that binds ceramidase” (Takara Bio Inc., priority 1999, dated 2008)

Biological target: T1, neutral/alkaline ceramidase derived from a mouse liver (Mus musculus, UniProt Q9JHE3)
T1 construct: the ceramidase purified from the mouse liver lacked the peptide of the N-terminal portion of the polypeptides encoded by the above-mentioned ORF; from tissue; host or cells: mouse liver (membrane fraction, purified by chromatography)
Assay: Substrate specificity of the ceramidase (degradation of 14C-labeled sphingolipids, TLC)
Assay type: biochemical
Conditions: for Degradation Ratio (%): 5 milliunits ceramidase on 100 pmol 14C-labeled sphingolipid, 25 mM Tris-HCl pH 7.5, 1% sodium cholate, 37° C., 24 hours; for Substrate specificity (in words): as shown in Table 1
Protocol: Five milliunits of the ceramidase of the present invention is acted on 100 pmol of various kinds of sphingolipids, in which the fatty acid moiety is labeled with ^14C-radioactive isotope, in […] of 25 mM Tris-hydrochloric acid buffer, pH 7.5, containing 1% sodium cholate at 37° C. for 24 hours. The reaction mixture is developed on silica gel thin layer chromatography. Thereafter, the ^14C-labeled sphingolipids and the ^14C-labeled fatty acids generated by the enzymatic reaction are detected and quantified by Imaging Analyzer BAS1000 (manufactured by Fuji Photo Film). The degradation ratio is calculated from the obtained values.

T1 sequence (Q9JHE3 75-756): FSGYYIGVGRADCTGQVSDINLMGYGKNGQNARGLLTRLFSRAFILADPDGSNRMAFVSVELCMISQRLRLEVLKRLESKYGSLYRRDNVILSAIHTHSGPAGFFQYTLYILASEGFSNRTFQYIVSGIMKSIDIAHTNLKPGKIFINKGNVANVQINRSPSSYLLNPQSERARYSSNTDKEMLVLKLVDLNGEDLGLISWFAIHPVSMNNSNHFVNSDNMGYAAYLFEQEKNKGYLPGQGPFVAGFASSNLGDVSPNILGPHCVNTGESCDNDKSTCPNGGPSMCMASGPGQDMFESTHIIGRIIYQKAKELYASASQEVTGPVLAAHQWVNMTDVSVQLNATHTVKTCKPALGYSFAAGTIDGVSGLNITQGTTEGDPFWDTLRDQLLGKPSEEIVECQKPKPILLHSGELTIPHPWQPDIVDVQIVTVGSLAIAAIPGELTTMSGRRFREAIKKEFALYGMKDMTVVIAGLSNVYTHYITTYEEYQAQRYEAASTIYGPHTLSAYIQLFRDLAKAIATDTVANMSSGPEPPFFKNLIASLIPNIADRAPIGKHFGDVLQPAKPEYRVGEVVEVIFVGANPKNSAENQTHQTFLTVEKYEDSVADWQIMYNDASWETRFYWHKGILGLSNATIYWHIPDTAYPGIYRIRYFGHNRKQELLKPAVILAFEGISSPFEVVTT

Row | Molecule | Degradation Ratio (%) | Substrate specificity (in words)
1 | Sulfatide | 0 | not acting
2 | CCCCCCCCCCCCC/C=C/[C@@H](O)[C@H](CO)NC(=O)CCCCCCCCCCCCCCC [N-Palmitoylsphingosine] | 93 | –
3 | Galactosylceramide | 0 | not acting
4 | CCCCCCCCCCCCC/C=C/[C@@H](O)[C@H](CO)NC(=O)CCCCCCCCCCC [N-Lauroylsphingosine] | 63 | –
5 | CCCCCCCCCCCCCCCC(=O)N[C@@H](CO)[C@H](O)CCCCCCCCCCCCCCC [N-Palmitoylsphinganine] | 59 | –
6 | CCCCCCCCCCCCCCCCCC(=O)N[C@@H](CO)[C@H](O)[C@H](O)CCCCCCCCCCCCCC [N-Stearoylphytosphingosine] | 2 | –
7 | CCCCCCCCCCCCC/C=C/[C@@H](O)[C@H](CO)NC(=O)CCCCCCCCCCCNc1ccc([N+](=O)[O-])c2nonc12 [12-((N-(7-nitrobenz-2-oxa-1,3-diazol-4-yl)amino)dodecanoyl)sphingosine] | 97 | –
8 | CCCCCCCCCCCCCCCCCC(=O)N[C@@H](CO)[C@H](O)CCCCCCCCCCCCCCC [N-Stearoylsphinganine] | 40 | –
9 | CCCCCCCCCCCCC/C=C/[C@@H](O)[C@H](CO)NC(=O)CCCCCCCCCCCCCCCCC [N-Stearoylsphingosine] | 83 | –
10 | CCCCCCCCCCCCCCCC(=O)N[C@@H](CO)[C@H](O)[C@H](O)CCCCCCCCCCCCCC [N-Palmitoylphytosphingosine] | 5 | –
11 | Galb1-3GalNAcb1-4(NeuAca2-3)Galb1-4G1cb1-1′Cer [GM1a] | 0 | not acting
12 | Sphingomyelin | 0 | not acting
13 | CCCCCCCCCCCCC/C=C/[C@@H](O)[C@H](CO)NC(=O)CCCCCNc1ccc([N+](=O)[O-])c2nonc12 [6-((N-(7-nitrobenz-2-oxa-1,3-diazole-4-yl)amino)hexanoyl)sphingosine] | 2 | –
